Reference: patent publication US8586568B2, “Methods and products for treatment of diseases” (Ampio Pharmaceuticals, Inc., priority 2005, dated 2013)
Read-outs that look alike come from different tables or passages of the source.

Assays:
[1] = tested on: Human umbilical vein endothelial cells 7016 (HUVEC); experiment: Invasion chamber: fetal calf serum induced endothelial cell invasion through matrigel treated inserts (trilostane III); conditions: for Mean FU: 5% FCS in bottom chamber, 24 hours, background subtracted, n=3; for effect on endothelial cell invasion: high dose (50 μM), 5% FCS induced invasion
Description: 1. Trypsinized HUVEC cells from flasks grown in Cambrex EGM-2 media to 70-80% confluence were washed two times with 37° C. EGM-2 with 0.1% FCS.
2. Cell suspensions containing 30,000 cells and compounds in EGM-2 0.1% FCS were added to the upper chamber of inserts.
3. EGM-2 containing 5% FCS was added to the bottom chamber and then incubated for 24 hours at 37° C. and 5% CO2.
4. Non-invading cells were removed from the upper chamber with cotton swab and the inserts were washed two times with 37° C. HBSS.
5. Inserts were then placed in wells containing 10 μM Calcein AM in HBSS.
6. Following four hours at 37° C. and 5% CO2, fluorescence was measured at 485 nm excitation and 595 nm emission.
Results are presented as mean fluorescent units (FU) in triplicate (n=3) with background fluorescence subtracted. […] To determine background invasion, nil inserts were included in triplicate that had EGM-2 with 0.1% FCS added to the bottom chamber.

HUVEC cells [2] = experiment: Danazol BioCoat Matrigel Invasion Chamber; format: cell-based, Human; conditions: 5% FCS in bottom chamber, 24 hours
Description: BioCoat Matrigel Invasion Chambers were purchased from BD Biosciences (San Jose, Calif.). Inserts were rehydrated at 37° C. with 500 μl HBSS for 2 hours prior to use in humidified incubator. Trypsinized HUVEC cells were washed twice with warm EGM-2 containing 0.1% FCS and added to the upper chamber of the invasion insert at 100,000 cells in a total volume of 250 μl. Danazol and control compounds were added to the upper reservoir at final concentrations of 10 μM and 100 μM. 750 μl EGM-2 supplemented with 5% FCS was added to the bottom chamber to initiate invasion and the plates were incubated for 24 hours. Non-invasive cells were removed from the upper chamber with moistened cotton swabs and then the inserts were washed twice with HBSS. The inserts were then submerged in 10 μM calcein AM prepared in HBSS and incubated for 4 hours. Fluorescence was determined in a microplate reader at 485 nm excitation and 595 nm emission.
All data is presented as representative experiment done in triplicate. Differences between subsets were analyzed using student t-test in Microsoft Excel. P<0.05 was considered statistically significant.

HUVEC cells [3] = experiment: Trilostane III tube formation assay in extracellular matrix gel; format: cell-based, Human; conditions: 50 μM, 18 hours
Description: 1. […] EGM-2 with 0.1% FCS.
2. Cell suspensions containing 10,000 cells and compounds in both EGM-2 0.1% and 5% FCS were added per well then incubated for 18 hours at 37° C. and 5% CO2.
3. Following incubation, tube formations were photographed under microscope.
Passage 3 HUVEC 8750 cells were used for this experiment at 98% viability by trypan blue exclusion at time of seeding.

HUVEC cells [4] = experiment: Danazol Endothelial Cell Tube Formation Assay on matrigel plugs; format: cell-based, Human; conditions: 5% FCS, 18 hours
Description: To investigate the formation of capillary-like structures by HUVEC cells, the Angiogenesis System Endothelial Cell Tube Formation Assay was purchased from BD Biosciences (San Jose, Calif.) and used according to the manufacturers protocol. In brief, 100,000 HUVEC cells were seeded onto rehydrated matrigel plugs in 96 well tissue culture plates in the presence of 5% FCS to induce tube formation. […] After 18 hours the wells were photographed using a Kodak DCS Pro SLR/N digital camera (Rochester, N.Y.) mounted on an inverted microscope. Ethanol treated wells were included to determine if the vehicle had any effects on cell differentiation.

HUVEC cells [5] = experiment: Danazol effect on HUVEC cell proliferation (Celltiter 96 AQueous One); format: cell-based, Human; conditions: for OD: OD±standard deviation
Description: Primary HUVEC and EGM-2 growth medium were obtained from Cambrex (Walkersville, Md.). The cells were passaged in medium supplemented with 2% fetal calf serum (FCS) in tissue culture flasks at 37° C. and 5% CO2. Subculturing was performed using trypsin when 60-80% confluence was obtained as specified by the supplier.
Cryopreserved ampoules of passage 2 HUVEC cells were thawed and plated in 96 well tissue culture plates at 5,000 cells/cm^2. A 50 mM stock solution of danazol was prepared in ethanol and the FCS in the medium was increased to 5% to keep danazol in solution. The cells were treated with medium containing final concentrations of danazol ranging from 0.1 to 100 μM in triplicates. 24, 48, and 72 hour incubations were performed and cell proliferation was determined utilizing Celltiter 96 AQueous One Solution Cell Proliferation assay from Promega (Madison, Wis.). In short, medium was aspirated from each well and the cells were washed with 200 μl […] buffered saline (HBSS) from Cambrex warmed to 37° C. 100 μl diluted celltiter solution (15 μl stock+85 μl EGM-2 containing 0.1% FCS) were added to each well and incubated for an additional 4 hours. Optical density was determined by microplate reader using a 530 nm filter after blank subtraction and data presented as OD±standard deviation. The final concentration of ethanol in the wells was less then 0.2% and had no effect on cell proliferation or viability.
All data are presented as representative experiment done in triplicate. Differences between subsets were analyzed using student t-test in Microsoft Excel. P<0.05 was considered statistically significant.

HUVEC cells [6] = experiment: Trilostane III effect on HUVEC cell proliferation (Celltiter 96 Aqueous One); format: cell-based, Human; conditions: for mean OD: 5% FCS, blank subtracted; for OD 1: replicate 1; for OD 2: replicate 2; for OD 3: replicate 3; for inhibition at 100 µM: Homo sapiens, HUVEC, read-out: inhibition of cultures (cell proliferation)
Description: 2. Medium was aspirated and the cells were then washed two times with 37° C. HBSS.
4. Cells were again washed to times with warm HBSS and then Celltiter reagent in EGM-2 with 0.1% FCS was added.
5. After 4 hours in culture the OD of each well was determine at 470 nm.
6. Repeat steps 4 and 5 for each time point.
Results are presented as mean OD of samples performed in triplicate (n=3) with mean blank OD subtracted. HUVEC 8750 cells were used for this experiment with 98% viability by trypan blue exclusion at time of seeding. […] The raw data are shown in Table 2 below and depicted graphically in FIG. 2.

[7] = without added 5% FCS (nil wells, 0.1% FCS)
[8] = Homo sapiens, HUVEC, 24 h, read-out: percent inhibition of proliferation
[9] = Homo sapiens, HUVEC, 48 h, read-out: percent inhibition of proliferation
[10] = Homo sapiens, HUVEC, 72 h, read-out: percent inhibition of proliferation

2α-cyano-4α,5α-epoxyandrostan-17β-ol-3-one [trilostane]
Mean FU ([1]; 25 μM): 11212.3 FU | Mean FU ([1]; 50 μM): 9101.33 FU

O=c1cc(N2CCOCC2)oc2c(-c3ccccc3)cccc12 [LY294002]
Mean FU ([1]; 50 μM): 9454.33 FU | fluorescence of invaded cells (HUVEC cells [2]; concentration not stated with the value): 5814±153 FU

O=c1cc(N2CCNCC2)oc2c(-c3ccccc3)cccc12 [LY303511]
Mean FU ([1]; 50 μM): 12795.3 FU | effect on endothelial cell invasion [1]: had no effect on invasion | tube formation (HUVEC cells [3]; [7]): comparable tube formations to untreated cells

C#C[C@]1(O)CC[C@H]2[C@@H]3CCC4=Cc5oncc5C[C@]4(C)[C@H]3CC[C@@]21C [danazol, 17α-pregna-2,4-dien-20-yno[2,3-d]-isoxazol-17β-ol]
tube formation (HUVEC cells [4]; 50 μM): isolated colonies of HUVEC located in the plug with very few, thin connections or vessel lumen spaces | tube formation (HUVEC cells [4]; danazol 1-50 μM): fewer organized structures with thin and less defined interconnections than controls | OD (HUVEC cells [5]; 0.1 μM, 72 hours): 0.798±0.037 | OD (HUVEC cells [5]; 1 μM, 48 hours): 0.378±0.037 | OD (HUVEC cells [5]; 1 μM, 72 hours): 0.484±0.022 | OD (HUVEC cells [5]; 10 μM, 24 hours): 0.288±0.037 | OD (HUVEC cells [5]; 10 μM, 48 hours): 0.241±0.012 | OD (HUVEC cells [5]; 10 μM, 72 hours): 0.229±0.016 | OD (HUVEC cells [5]; 100 μM, 24 hours): 0.162±0.017 | OD (HUVEC cells [5]; 100 μM, 48 hours): 0.19±0.033 | OD (HUVEC cells [5]; 100 μM, 72 hours): 0.156±0.018 | effect on cell proliferation (HUVEC cells [5]; 100 μM, all time points): complete arrest of cell proliferation | concentration at which inhibition was significant (HUVEC cells [5]; 48 hours): approximately 1 μM | inhibition at 10 µM (HUVEC cells [5]; [8]): 30% | inhibition at 100 µM (HUVEC cells [5]; [8]): 65% | inhibition at 1 µM (HUVEC cells [5]; [9]): 40% | inhibition at 10 µM (HUVEC cells [5]; [9]): 61% | inhibition at 100 µM (HUVEC cells [5]; [9]): 70% | inhibition at 0.1 µM (HUVEC cells [5]; [10]): 28% | inhibition at 1 µM (HUVEC cells [5]; [10]): 57% | inhibition at 10 µM (HUVEC cells [5]; [10]): 80% | inhibition at 100 µM (HUVEC cells [5]; [10]): 86% | effect on cell invasion (HUVEC cells [2]; 10 μM): had no effect | effect on cell invasion (HUVEC cells [2]; 100 μM): had no effect

C[C@]12CCC3C(CC[C@@]45O[C@@H]4C4ON=CC4C[C@]35C)C1CC[C@@H]2O (stereo partly drawn) [trilostane III]
effect on endothelial cell invasion [1]: dropped the levels back to background | mean OD (HUVEC cells [6]; 0.1 uM, 24 hour): 0.3873 | OD 1 (HUVEC cells [6]; 0.1 uM, 24 hour): 0.362 | OD 2 (HUVEC cells [6]; 0.1 uM, 24 hour): 0.368 | OD 3 (HUVEC cells [6]; 0.1 uM, 24 hour): 0.432 | mean OD (HUVEC cells [6]; 0.1 uM, 48 hour): 0.656 | OD 1 (HUVEC cells [6]; 0.1 uM, 48 hour): 0.575 | OD 2 (HUVEC cells [6]; 0.1 uM, 48 hour): 0.698 | OD 3 (HUVEC cells [6]; 0.1 uM, 48 hour): 0.695 | mean OD (HUVEC cells [6]; 0.1 uM, 72 hour): 0.9187 | OD 1 (HUVEC cells [6]; 0.1 uM, 72 hour): 0.733 | OD 2 (HUVEC cells [6]; 0.1 uM, 72 hour): 0.962 | OD 3 (HUVEC cells [6]; 0.1 uM, 72 hour): 1.061 | mean OD (HUVEC cells [6]; 1 uM, 24 hour): 0.311 | OD 1 (HUVEC cells [6]; 1 uM, 24 hour): 0.284 | OD 2 (HUVEC cells [6]; 1 uM, 24 hour): 0.328 | OD 3 (HUVEC cells [6]; 1 uM, 24 hour): 0.321 | mean OD (HUVEC cells [6]; 1 uM, 48 hour): 0.4347 | OD 1 (HUVEC cells [6]; 1 uM, 48 hour): 0.358 | OD 2 (HUVEC cells [6]; 1 uM, 48 hour): 0.489 | OD 3 (HUVEC cells [6]; 1 uM, 48 hour): 0.457 | mean OD (HUVEC cells [6]; 1 uM, 72 hour): 0.3877 | OD 1 (HUVEC cells [6]; 1 uM, 72 hour): 0.387 | OD 2 (HUVEC cells [6]; 1 uM, 72 hour): 0.437 | OD 3 (HUVEC cells [6]; 1 uM, 72 hour): 0.339 | mean OD (HUVEC cells [6]; 10 uM, 24 hour): 0.2467 | OD 1 (HUVEC cells [6]; 10 uM, 24 hour): 0.18 | OD 2 (HUVEC cells [6]; 10 uM, 24 hour): 0.267 | OD 3 (HUVEC cells [6]; 10 uM, 24 hour): 0.293 | mean OD (HUVEC cells [6]; 10 uM, 48 hour): 0.203 | OD 1 (HUVEC cells [6]; 10 uM, 48 hour): 0.159 | OD 2 (HUVEC cells [6]; 10 uM, 48 hour): 0.208 | OD 3 (HUVEC cells [6]; 10 uM, 48 hour): 0.242 | mean OD (HUVEC cells [6]; 10 uM, 72 hour): 0.072 | OD 1 (HUVEC cells [6]; 10 uM, 72 hour): 0.031 | OD 2 (HUVEC cells [6]; 10 uM, 72 hour): 0.095 | OD 3 (HUVEC cells [6]; 10 uM, 72 hour): 0.09 | mean OD (HUVEC cells [6]; 100 uM, 24 hour): 0.2787 | OD 1 (HUVEC cells [6]; 100 uM, 24 hour): 0.235 | OD 2 (HUVEC cells [6]; 100 uM, 24 hour): 0.334 | OD 3 (HUVEC cells [6]; 100 uM, 24 hour): 0.267 | mean OD (HUVEC cells [6]; 100 uM, 48 hour): 0.2147 | OD 1 (HUVEC cells [6]; 100 uM, 48 hour): 0.17 | OD 2 (HUVEC cells [6]; 100 uM, 48 hour): 0.23 | OD 3 (HUVEC cells [6]; 100 uM, 48 hour): 0.244 | mean OD (HUVEC cells [6]; 100 uM, 72 hour): 0.108 | OD 1 (HUVEC cells [6]; 100 uM, 72 hour): 0.092 | OD 2 (HUVEC cells [6]; 100 uM, 72 hour): 0.119 | OD 3 (HUVEC cells [6]; 100 uM, 72 hour): 0.113 | lowest concentration with statistically relevant decrease in cell proliferation (HUVEC cells [6]; 24 hours): 1 µM | inhibition at 100 µM (HUVEC cells [6]; 24 hours): 33% | inhibition at 100 µM (HUVEC cells [6]; 48 hours): 67% | inhibition at 100 µM (HUVEC cells [6]; 72 hours): 90% | cell viability under inverted microscope (HUVEC cells [6]; all wells, even highest doses after 72 hours in culture): Viable cells were visible in all wells | tube formation (HUVEC cells [3]; in the presence of 5% fetal calf serum): greatly reduced tube formation | tube formation (HUVEC cells [3]; [7]): decrease in branching, vacuole formation, and increase in satellite cells
